One assay deals with PKMYT1 (Homo sapiens (Human), UniProt Q99640). In words: In vitro assay: kinase binding to immobilized ligand, captured kinase measured by qPCR. (In general: In qPCR the cycle at which signal appears reflects the starting amount.)
The next assay deals with LCK (Homo sapiens (Human), UniProt P06239). Described as above. The text has this: Example B-1: In Vitro Assay
Compounds that bind the kinase active site and directly (sterically) or indirectly (allosterically) prevent kinase binding to an immobilized ligand and reduce the amount of kinase captured on the solid support. Screening “hits” were identified by measuring the amount of kinase captured in test versus control samples by using a quantitative, precise and ultra-sensitive qPCR method that detect the associated DNA label. In a similar manner, dissociation constants (Kd's) for test compound-kinase interactions were calculated by measuring the amount of kinase captured on the solid support as a function of the test compound concentration.

Structures are written as SMILES.

Sequence of LCK (P06239 whole entry): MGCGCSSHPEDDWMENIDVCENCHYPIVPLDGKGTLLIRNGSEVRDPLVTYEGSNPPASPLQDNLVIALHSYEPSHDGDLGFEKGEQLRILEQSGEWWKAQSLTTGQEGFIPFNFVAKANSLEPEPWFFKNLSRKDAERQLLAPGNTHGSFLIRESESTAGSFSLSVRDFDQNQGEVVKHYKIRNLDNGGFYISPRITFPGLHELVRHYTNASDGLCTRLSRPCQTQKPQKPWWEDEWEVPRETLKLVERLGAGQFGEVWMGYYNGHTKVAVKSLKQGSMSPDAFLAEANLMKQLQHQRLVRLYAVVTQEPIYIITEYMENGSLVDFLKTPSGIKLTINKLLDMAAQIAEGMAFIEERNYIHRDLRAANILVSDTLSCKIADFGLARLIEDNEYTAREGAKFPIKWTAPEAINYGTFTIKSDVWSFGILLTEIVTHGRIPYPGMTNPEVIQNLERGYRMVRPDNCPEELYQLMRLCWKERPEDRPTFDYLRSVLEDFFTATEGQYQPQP
Sequence of PKMYT1 (Q99640 whole entry): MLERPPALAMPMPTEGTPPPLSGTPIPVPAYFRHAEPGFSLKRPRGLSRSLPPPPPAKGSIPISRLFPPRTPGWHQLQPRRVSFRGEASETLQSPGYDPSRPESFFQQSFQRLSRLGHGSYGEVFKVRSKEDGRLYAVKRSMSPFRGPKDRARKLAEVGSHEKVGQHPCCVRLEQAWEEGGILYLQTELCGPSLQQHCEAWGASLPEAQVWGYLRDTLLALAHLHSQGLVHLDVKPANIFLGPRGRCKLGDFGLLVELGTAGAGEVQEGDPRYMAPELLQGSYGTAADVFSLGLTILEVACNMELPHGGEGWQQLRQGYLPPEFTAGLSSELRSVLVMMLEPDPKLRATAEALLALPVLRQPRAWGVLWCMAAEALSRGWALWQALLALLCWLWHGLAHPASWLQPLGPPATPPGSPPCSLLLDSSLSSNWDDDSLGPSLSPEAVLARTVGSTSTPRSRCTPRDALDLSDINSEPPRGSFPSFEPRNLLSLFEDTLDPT

A word on the IC50: it is the concentration that gives 50% inhibition. Read a high IC50 as weaker potency. In the case of `Cc1ncc(O)c(C)c1-n1c(N)c(C(N)=O)c2cc(Cl)cnc21` [Compound 543], the IC50 was < 50 nM at PKMYT1 and 100 to 1000 nM at LCK.

In the case of `Cc1ccc(O)c(C)c1-n1c(N)c(C(N)=O)c2cnc(C#CC(F)(F)F)nc21` [Compound 648], the values for the IC50 on PKMYT1 and on LCK were 50 to 100 nM and < 50 nM, respectively.

With `Cc1ccc(O)c(C)c1-n1c(N)c(C(N)=O)c2cnc(NC(=O)[C@@H]3CCCN3)nc21` [Compound 593, (S)-6-amino-7-(3-hydroxy-2,6-dimethylphenyl)-2-(pyrrolidine-2-carboxamido)-7H-pyrrolo[2,3-d]pyrimidine-5-carboxamide], the IC50 is < 50 nM on PKMYT1 and 100 to 1000 nM at LCK.

On to `Cc1c(O)cc(F)c(C)c1-n1c(N)c(C(N)=O)c2cnc(C3CC3)nc21` (atropisomer, axis not shown) [Compound 656], for which the IC50 on PKMYT1 and on LCK was < 50 nM in each case.
